Source: PubChem BioAssay (NCI)
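Five compound concentrations were applied to cells in 96-well plates for 48 hours; endpoints were derived by simple linear interpolation of the resulting dose-response curve. TGI is the concentration that stops growth completely.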

Key:
Assay in all cases: NCI tumour cell line growth inhibition, 48 h
DMS 114 small cell lung = system: DMS 114 small cell lung
MOLT-4 leukemia = system: MOLT-4 leukemia
SK-OV-3 ovarian = system: SK-OV-3 ovarian
HL-60(TB) leukemia = system: HL-60(TB) leukemia
NCI-H522 lung = system: NCI-H522 lung
NCI-H226 lung = system: NCI-H226 lung
CCRF-CEM leukemia = system: CCRF-CEM leukemia
SN12C renal = system: SN12C renal
M14 melanoma = system: M14 melanoma
M19-MEL melanoma = system: M19-MEL melanoma
IGROV1 ovarian = system: IGROV1 ovarian
OVCAR-4 ovarian = system: OVCAR-4 ovarian
SF-268 CNS = system: SF-268 CNS
UACC-62 melanoma = system: UACC-62 melanoma
ACHN renal = system: ACHN renal
HOP-62 NSCLC = system: HOP-62 NSCLC
K-562 leukemia = system: K-562 leukemia
SF-539 CNS = system: SF-539 CNS
NCI-H23 lung = system: NCI-H23 lung
CAKI-1 renal = system: CAKI-1 renal
RPMI-8226 leukemia = system: RPMI-8226 leukemia
SK-MEL-2 melanoma = system: SK-MEL-2 melanoma
MALME-3M melanoma = system: MALME-3M melanoma
RXF-631 renal = system: RXF-631 renal
SK-MEL-28 melanoma = system: SK-MEL-28 melanoma
COLO 205 colon = system: COLO 205 colon
HCC-2998 colon = system: HCC-2998 colon
LXFL 529 NSCLC = system: LXFL 529 NSCLC
HOP-92 NSCLC = system: HOP-92 NSCLC
XF 498 CNS = system: XF 498 CNS
SR leukemia = system: SR leukemia
A498 renal = system: A498 renal
786-0 renal = system: 786-0 renal
UO-31 renal = system: UO-31 renal
SNB-75 CNS = system: SNB-75 CNS
DMS 273 small cell lung = system: DMS 273 small cell lung
DLD-1 colon = system: DLD-1 colon
HCT-116 colon = system: HCT-116 colon
SK-MEL-5 melanoma = system: SK-MEL-5 melanoma
OVCAR-5 ovarian = system: OVCAR-5 ovarian
OVCAR-3 ovarian = system: OVCAR-3 ovarian
HOP-18 NSCLC = system: HOP-18 NSCLC
HCT-15 colon = system: HCT-15 colon
SF-295 CNS = system: SF-295 CNS
OVCAR-8 ovarian = system: OVCAR-8 ovarian
SNB-19 CNS = system: SNB-19 CNS
SNB-78 CNS = system: SNB-78 CNS
KM20L2 colon = system: KM20L2 colon
RXF 393 renal = system: RXF 393 renal
SW-620 colon = system: SW-620 colon
A549 NSCLC = system: A549 NSCLC
UACC-257 melanoma = system: UACC-257 melanoma
U251 CNS = system: U251 CNS
KM12 colon = system: KM12 colon
NCI-H460 lung = system: NCI-H460 lung
LOX IMVI melanoma = system: LOX IMVI melanoma
TK-10 renal = system: TK-10 renal
HT29 colon = system: HT29 colon
EKVX NSCLC = system: EKVX NSCLC

Measured: TGI

CNC1CC(n2cc(C)c(=O)[nH]c2=O)OC1CO (configuration not stated)
> 100 µM: DMS 114 small cell lung | MOLT-4 leukemia | SK-OV-3 ovarian | HL-60(TB) leukemia | NCI-H522 lung | NCI-H226 lung | CCRF-CEM leukemia | SN12C renal | M14 melanoma | M19-MEL melanoma | IGROV1 ovarian | OVCAR-4 ovarian | SF-268 CNS | UACC-62 melanoma | ACHN renal | HOP-62 NSCLC | K-562 leukemia | SF-539 CNS | NCI-H23 lung | CAKI-1 renal | RPMI-8226 leukemia | SK-MEL-2 melanoma | MALME-3M melanoma | RXF-631 renal | SK-MEL-28 melanoma | COLO 205 colon | HCC-2998 colon | LXFL 529 NSCLC | HOP-92 NSCLC | XF 498 CNS | SR leukemia | A498 renal | 786-0 renal | UO-31 renal | SNB-75 CNS | DMS 273 small cell lung | DLD-1 colon | HCT-116 colon

O=C1Cc2c([nH]c3ccccc23)-c2cc(Br)ccc2N1
> 100 µM: SK-MEL-5 melanoma | DMS 114 small cell lung | MOLT-4 leukemia | SK-OV-3 ovarian | HL-60(TB) leukemia | NCI-H522 lung | OVCAR-5 ovarian | OVCAR-3 ovarian | NCI-H226 lung | CCRF-CEM leukemia | SN12C renal | M14 melanoma | HOP-18 NSCLC | M19-MEL melanoma | HCT-15 colon | SF-295 CNS | OVCAR-8 ovarian | IGROV1 ovarian | OVCAR-4 ovarian | SF-268 CNS | SNB-19 CNS | ACHN renal | HOP-62 NSCLC | K-562 leukemia | SNB-78 CNS | KM20L2 colon | SF-539 CNS | RXF 393 renal | NCI-H23 lung | SW-620 colon | CAKI-1 renal | A549 NSCLC | RPMI-8226 leukemia | SK-MEL-2 melanoma | MALME-3M melanoma | UACC-257 melanoma | U251 CNS | RXF-631 renal | KM12 colon | NCI-H460 lung | SK-MEL-28 melanoma | COLO 205 colon | HCC-2998 colon | LXFL 529 NSCLC | HOP-92 NSCLC | LOX IMVI melanoma | A498 renal | 786-0 renal | TK-10 renal | UO-31 renal | SNB-75 CNS | DMS 273 small cell lung | DLD-1 colon | HCT-116 colon | HT29 colon | EKVX NSCLC

Cc1cc2nc3c(C(OC4OC(CO)C(O)C(O)C4O)C(O)CO)nn(-c4ccc(F)cc4)c3nc2cc1C (configuration not stated)
> 100 µM: DMS 114 small cell lung | MOLT-4 leukemia | SK-OV-3 ovarian | NCI-H522 lung | OVCAR-5 ovarian | OVCAR-3 ovarian | CCRF-CEM leukemia | SN12C renal | M14 melanoma | M19-MEL melanoma | HCT-15 colon | SF-295 CNS | OVCAR-8 ovarian | OVCAR-4 ovarian | SF-268 CNS | SNB-19 CNS | UACC-62 melanoma | ACHN renal | HOP-62 NSCLC | K-562 leukemia | SNB-78 CNS | KM20L2 colon | SF-539 CNS | RXF 393 renal | NCI-H23 lung | RPMI-8226 leukemia | MALME-3M melanoma | UACC-257 melanoma | U251 CNS | RXF-631 renal | KM12 colon | NCI-H460 lung | SK-MEL-28 melanoma | HCC-2998 colon | LXFL 529 NSCLC | XF 498 CNS | LOX IMVI melanoma | SR leukemia | A498 renal | 786-0 renal | TK-10 renal | UO-31 renal | SNB-75 CNS | DLD-1 colon | HCT-116 colon | HT29 colon | EKVX NSCLC

c1ccc2c(c1)n1nnnc1c1nnnn21
> 100 µM: SK-MEL-5 melanoma | DMS 114 small cell lung | MOLT-4 leukemia | SK-OV-3 ovarian | NCI-H522 lung | OVCAR-5 ovarian | OVCAR-3 ovarian | NCI-H226 lung | CCRF-CEM leukemia | SN12C renal | M14 melanoma | M19-MEL melanoma | HCT-15 colon | SF-295 CNS | OVCAR-8 ovarian | IGROV1 ovarian | OVCAR-4 ovarian | SF-268 CNS | SNB-19 CNS | UACC-62 melanoma | ACHN renal | HOP-62 NSCLC | K-562 leukemia | SNB-78 CNS | KM20L2 colon | SF-539 CNS | RXF 393 renal | NCI-H23 lung | SW-620 colon | CAKI-1 renal | A549 NSCLC | RPMI-8226 leukemia | SK-MEL-2 melanoma | MALME-3M melanoma | UACC-257 melanoma | U251 CNS | RXF-631 renal | KM12 colon | NCI-H460 lung | SK-MEL-28 melanoma | COLO 205 colon | HCC-2998 colon | LXFL 529 NSCLC | HOP-92 NSCLC | XF 498 CNS | LOX IMVI melanoma | A498 renal | 786-0 renal | TK-10 renal | UO-31 renal | DMS 273 small cell lung | DLD-1 colon | HCT-116 colon | HT29 colon | EKVX NSCLC
84.3 µM: SNB-75 CNS
